Results taken from patent publication US5039792A, “Allatostatins which inhibit insect juvenile hormone biosynthesis” (Oregon State University, priority 1989, dated 1991).
Ends that are not written are not given here.

Tested on: juvenile hormone III synthesis by corpora allata
Assay: in vitro radiochemical assay for inhibition of juvenile hormone III synthesis and release by corpora allata
Assay type: cell-based, Diploptera punctata
Conditions: for IC50: inhibition of juvenile hormone synthesis and release, two hour in vitro radiochemical assay, corpora allata from ten day old pregnant females, read-out: Bioactivity as I.C.50 (Day 10 Donors)
Procedure: This assay for inhibition of JH synthesis is conducted as described by G. E. Pratt and J. R. Finney, in Crop Protection Agents: their biological evaluation, N. R. McFarlane, Ed. (Academic Press, New York, 1976)) except it is modified by the use of rapid partition instead of thin layer chromatography to isolate the newly synthesized JH and also modified by a reduction of incubation time to two hours.
Biological activities are determined for all RP18.cndot.HPLC fractions. […] Juvenile hormone III is synthesized de novo from acetyl-CoA through the classical isoprenoid pathway to farnesyl pyrophosphate (D. A. Schooley and F. C. Baker, in Comprehensive Insect Physiology, Biochemistry and Pharmacology, G. A. Kerkut and L. I. Gilbert, Eds. (Pergamon, Oxford, 1985) Vol. 7, pp. 363-389) and the enzymatic conversion of […] to JH can be stimulated in vitro by exogenous 2E,6E […] (Aldrich, Milwaukee, Wis.) which presumably alleviates a limitation in the biosynthetic flux (R. Feyereisen, J. Koener, S. S. Tobe, in Juvenile Hormone Biochemistry, G. E. Pratt and G. T. Brooks, Eds. (Elsevier, Amsterdam, 1981), pp. 81-92). […] The target of this allatostatin is therefore located early in the biosynthetic pathway. Juvenile hormone synthesis is determined at the end of two hours in these assays and bioactivity is measured as the ability of the peptide to inhibit biosynthesis of the JHIII. The peptide yields as determined from sequence analysis correspond to approximately 35 fmole/brain-complex. This is approximately one third the yield of the smaller known allatostatins (see G. E. Pratt et al. Biochem. & Biophys. Res. Commun. 163:1243 (1989) and A. P. Woodhead et al. Prod. Natl. Acad. Sci. 86:5997 (1989).
The inhibition of JH III synthesis and release by corpora allata (CA) from ten day old pregnant females is measured by an in vitro radiochemical assay. The three hour assay for inhibitors of JH synthesis (G. E. Pratt and J. R. Finney, in Crop Protection Agents: their biological evaluation, N. R. McFarlane, Ed. (Academic Press, New York, 1976) pp. 113-132) is modified by the use of rapid partition instead of thin layer chromatography to isolate the newly synthesized JH III (R. Feyereisen and S. S. Tobe, Anal. Biochem. 111: 372 (1981)) and modified by a reduction of incubation time to two hours. In each assay, run in seven replicates, one pair of CA was incubated with 50 μM (methyl-^3 H) methionine and putative inhibitor in 0.1 mL of TC199 containing 2% Ficoll, 0.1% bovine serum albumin and 0.03% bacitracin. The test glands show maximum sensitivity to the allatostatic action of brain extracts. R. Feyereisen and D. E. Farnsworth, Insect Biochem. 17,939 (1987); S. M. Rankin and B. Stay, J. Insec. Physiol. 33, 551 (1987).

Substance	IC50 [µM]	inhibition of JH III biosynthesis in dose-response assays in the presence of farnesol (in the presence of 200 μM farnesol, JH synthesis determined at the end of two hours)	biological activity in the in vitro assay (inhibition of JH synthesis) (in vitro radiochemical assay, corpora allata)
LPVYNFGL-NH2 [LPVYNFGL-NH2]	0.05	–	–
LRVYNFGL-NH2 [LRVYNFGL-NH2]	0.118	–	–
RLPVYNFGL-NH2 [RLPVYNFGL-NH2]	0.27	–	–

Now those with a lower IC50, led by results:

IC50 [µM]	Substance	inhibition of JH III biosynthesis in dose-response assays in the presence of farnesol (in the presence of 200 μM farnesol, JH synthesis determined at the end of two hours)	biological activity in the in vitro assay (inhibition of JH synthesis) (in vitro radiochemical assay, corpora allata)
0.03	Ac-RLPVYNFGL-NH2 [acetyl-RLPVYNFGL-NH2]	–	–
0.0015	Ac-AYSYVSEYKRLPVYNFGL-NH2 [acetyl-AYSYVSEYKRLPVYNFGL-NH2]	–	–
0.0003	AYSYVSEYKRLPVYNFGL-NH2 [AYSYVSEYKRLPVYNFGL-NH2]	totally ineffective	biologically active
